Where two headings read alike, the source gives them in different places. Each block holds one compound with its values, some of them ahead of it.
Assays:
MCF-7 = assay: Tumor cell proliferation inhibition (CellTiter-Meiluncell Luminescent Cell Viability Assay); format: cell-based; conditions: Homo sapiens, 96 hours, Table I-2, ALK inhibitors; for inhibition at 0.01 µM: MCF7, 10 nM, read-out: Inhibition Rate at 10 nM (%); for inhibition at 0.5 µM: MCF7, 500 nM, read-out: Inhibition Rate at 500 nM (%)
Protocol: (§1) The tumor cells used herein were cultured in a cell culture medium listed in table 3 at 37°C in an incubator with 5% CO2. Prior to experimentation, all cell lines used were correctly identified by STR profiling, and tested negative for mycoplasma contamination using a mycoplasma detection kit through routine screenings. Table 3. Tumor cells and cell culture medium used in the present disclosure
(§2) The IC50 values of the compounds of the present disclosure (including the compounds in Table 1, Table 2, and Examples) were determined using the CellTiter-Meiluncell Luminescent Cell Viability Assay Kit from Dalian Meilun Biotech Co., Ltd. The detailed procedure is as follows: Tumor cells were seeded in 96-well cell culture plates at the densities specified in Table 4. On the following day, the test compounds of the present disclosure were subjected to serial dilution. […] Subsequently, 0.5 µL of the test compound dilution was transferred into the 96-well plate containing the cells, with each well containing 100 µL of cell culture medium. […] Into the 96-well plate, the diluted test compounds and corresponding detection reagents were added, resulting in final test compound concentrations of 500 nM and 10 nM, respectively. The experimental procedure is described below using the diluted 2 µM test compound as an example.
(§3) 0.5 µL of the aforementioned diluted compound of the present disclosure (including the compounds in Table 1, Table 2, and Examples) was added to the seeded cells in 100 µL of medium, yielding a final test compound concentration of 10 nM. After the cells were treated with the compounds of the present disclosure for a specified period, the cell viability assay reagent was added to the culture medium according to the kit's instructions to determine cell viability. […] All controls were treated using the same procedure as the compounds of the present disclosure. […] Seeding protocol and treatment time for tumor cells

MM.1S = assay: as above; format: cell-based; conditions: Homo sapiens, MM1.S; for inhibition at 0.01 µM: read-out: Inhibition Rate at 10 nM (%); for inhibition at 0.5 µM: read-out: Inhibition Rate at 500 nM (%)
Protocol: as §1, §2, §3

MV-4-11 = assay: as above; format: cell-based; conditions: Homo sapiens, 96 hours; for inhibition at 0.01 µM: MV4-11, 10 nM, read-out: Inhibition Rate at 10 nM (%); for inhibition at 0.5 µM: MV4-11, 500 nM, read-out: Inhibition Rate at 500 nM (%)
Protocol: as §1, §2, §3

[1] = target: T1, human Cereblon WT GST-tagged protein (Homo sapiens, UniProt Q96SW2); assay: CRBN-binding affinity, HTRF (CEREBLON BINDING kit); conditions: for inhibition at 0.5 µM: read-out: Inhibition Rate at 0.5 µM (%); for inhibition at 2 µM: read-out: Inhibition Rate at 2 µM (%)
T1 construct: purchased CISBIO 64BDCRBNPEH
T1 sequence (Q96SW2 whole entry): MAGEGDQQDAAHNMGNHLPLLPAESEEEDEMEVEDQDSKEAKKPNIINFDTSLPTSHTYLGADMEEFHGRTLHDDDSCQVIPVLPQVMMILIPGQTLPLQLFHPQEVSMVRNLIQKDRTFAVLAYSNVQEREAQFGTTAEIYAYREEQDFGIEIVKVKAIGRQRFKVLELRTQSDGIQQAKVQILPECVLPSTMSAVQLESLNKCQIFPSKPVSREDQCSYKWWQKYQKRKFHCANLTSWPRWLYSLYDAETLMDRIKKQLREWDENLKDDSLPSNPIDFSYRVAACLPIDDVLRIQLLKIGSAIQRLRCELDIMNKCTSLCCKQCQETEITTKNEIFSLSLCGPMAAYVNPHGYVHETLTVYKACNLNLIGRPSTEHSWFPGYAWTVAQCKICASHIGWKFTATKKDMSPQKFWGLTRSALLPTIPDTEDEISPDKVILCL
How it was run: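 Compounds are serially diluted in diluent #9 (1X) and added at final 2 µM and 0.5 µM. GST-tagged wild-type Cereblon is added next, followed by premixed thalidomide-red reagent and anti-GST Eu antibody, and HTRF signal is measured.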

JEKO-1 = assay: Tumor cell proliferation inhibition (CellTiter-Meiluncell Luminescent Cell Viability Assay); format: cell-based; conditions: Homo sapiens, 96 hours, Table I-6, IRAK4 inhibitors; for inhibition at 0.01 µM: 10 nM, read-out: Inhibition Rate at 10 nM (%); for inhibition at 0.5 µM: 500 nM, read-out: Inhibition Rate at 500 nM (%)
Protocol: as §1, §2, §3

SW620 = assay: as above; format: cell-based; conditions: Homo sapiens, 96 hours; for inhibition at 0.01 µM: SW-620, 10 nM, read-out: Inhibition Rate at 10 nM (%); for inhibition at 0.5 µM: SW-620, 500 nM, read-out: Inhibition Rate at 500 nM (%)
Protocol: as §1, §2, §3

RPMI-8226 = assay: as above; format: cell-based; conditions: Homo sapiens, 96 hours; for inhibition at 0.01 µM: 10 nM, read-out: Inhibition Rate at 10 nM (%); for inhibition at 0.5 µM: 500 nM, read-out: Inhibition Rate at 500 nM (%)
Protocol: as §1, §2, §3

[2] = MM.1S, 10 nM, 96 hours, Table I-2, ALK inhibitors
[3] = MM.1S, 500 nM, 96 hours, Table I-2, ALK inhibitors
[4] = MM.1S, 10 nM, 96 hours, Table I-6, IRAK4 inhibitors
[5] = MM.1S, 500 nM, 96 hours, Table I-6, IRAK4 inhibitors

inhibition at 0.5 µM [1]: 53 to 60%
inhibition at 2 µM [1]: 80 to 100%
Compound: COc1cc(N2CCN(Cc3cccc4c3CN(C3CCC(=O)NC3=O)C4=S)CC2)ccc1Nc1ncc(Cl)c(Nc2ccccc2P(C)(C)=O)n1 (centres unmarked) [GT-08677, 3-(4-((4-(4-((5-chloro-4-((2-(dimethylphosphoryl)phenyl)amino)pyrimidin-2-yl)amino)-3-methoxyphenyl)piperazin-1-yl)methyl)-1-thioxoisoindolin-2-yl)piperidine-2,6-dione]
inhibition at 0.01 µM (MCF-7): -5 to 0%
inhibition at 0.5 µM (MCF-7): 30 to 40%
inhibition at 0.01 µM (MM.1S; [2]): 10 to 20%
inhibition at 0.5 µM (MM.1S; [3]): 20 to 30%
inhibition at 0.01 µM (MV-4-11; Table I-2, ALK inhibitors): 0 to 10%
inhibition at 0.5 µM (MV-4-11; Table I-2, ALK inhibitors): 60 to 70%

inhibition at 0.5 µM [1]: 80 to 100%
inhibition at 2 µM [1]: 80 to 100%
Compound: O=C1CCC(N2Cc3cc(CN4CCC(n5cc(NC(=O)c6cnn7ccc(N8CCOCC8)nc67)c(C(F)F)n5)CC4)ccc3C2=S)C(=O)N1 (centres unmarked) [GT-05098, N-(3-(difluoromethyl)-1-(1-((2-(2,6-dioxopiperidin-3-yl)-1-thioxoisoindolin-5-yl)methyl)piperidin-4-yl)-1H-pyrazol-4-yl)-5-morpholinopyrazolo[1,5-a]pyrimidine-3-carboxamide]
inhibition at 0.01 µM (JEKO-1): 5 to 10%
inhibition at 0.5 µM (JEKO-1): 20 to 30%
inhibition at 0.01 µM (MM.1S; [4]): 20 to 30%
inhibition at 0.5 µM (MM.1S; [5]): 80 to 100%
inhibition at 0.01 µM (MV-4-11; Table I-6, IRAK4 inhibitors): 20 to 30%
inhibition at 0.5 µM (MV-4-11; Table I-6, IRAK4 inhibitors): 80 to 100%
inhibition at 0.01 µM (SW620; Table I-6, IRAK4 inhibitors): 10 to 20%
inhibition at 0.5 µM (SW620; Table I-6, IRAK4 inhibitors): 40 to 50%

Compound: Cc1ccc(NC(=O)c2ccc(CN3CCN(C)CC3)cc2)cc1Nc1nccc(-c2cccnc2)n1 [imatinib]
inhibition at 0.01 µM (MV-4-11; Table I-10, BCR-ABL inhibitors): 0 to 5%
inhibition at 0.5 µM (MV-4-11; Table I-10, BCR-ABL inhibitors): 0 to 5%
inhibition at 0.01 µM (RPMI-8226; Table I-10, BCR-ABL inhibitors): 5 to 10%
inhibition at 0.5 µM (RPMI-8226; Table I-10, BCR-ABL inhibitors): 10 to 20%
inhibition at 0.01 µM (SW620; Table I-10, BCR-ABL inhibitors): 5 to 10%
inhibition at 0.5 µM (SW620; Table I-10, BCR-ABL inhibitors): 10 to 20%

inhibition at 0.5 µM [1]: 60 to 80%
inhibition at 2 µM [1]: 80 to 100%
Compound: O=C1CCC(N2Cc3cc(CN4CCC(n5cc(NC(=O)c6cnn7ccc(N8C[C@H]9C[C@@H]8CO9)nc67)c(C(F)F)n5)CC4)ccc3C2=S)C(=O)N1 (stereo partly drawn) [GT-05321, 5-((1R,4R)-2-oxa-5-azabicyclo[2.2.1]heptan-5-yl)-N-(3-(difluoromethyl)-1-(1-((2-(2,6-dioxopiperidin-3-yl)-1-thioxoisoindolin-5-yl)methyl)piperidin-4-yl)-1H-pyrazol-4-yl)pyrazolo[1,5-a]pyrimidine-3-carboxamide]
inhibition at 0.01 µM (JEKO-1): 5 to 10%
inhibition at 0.5 µM (JEKO-1): 40 to 50%
inhibition at 0.01 µM (MM.1S; [4]): 30 to 40%
inhibition at 0.5 µM (MM.1S; [5]): 80 to 100%
inhibition at 0.01 µM (MV-4-11; Table I-6, IRAK4 inhibitors): 40 to 50%
inhibition at 0.5 µM (MV-4-11; Table I-6, IRAK4 inhibitors): 80 to 100%
inhibition at 0.01 µM (SW620; Table I-6, IRAK4 inhibitors): 30 to 40%
inhibition at 0.5 µM (SW620; Table I-6, IRAK4 inhibitors): 70 to 80%

Compound: CC[C@@H]1[C@H](F)C(=O)N[C@@H]1COc1nccc2cc(C(N)=O)c(OC)cc12 [PF06650833, PF-06650833, reference compound]
inhibition at 0.01 µM (JEKO-1): 10 to 20%
inhibition at 0.5 µM (JEKO-1): 20 to 30%
inhibition at 0.01 µM (MM.1S; 96 h): 0 to 5%
inhibition at 0.5 µM (MM.1S; 96 h): 0 to 5%
inhibition at 0.01 µM (MV-4-11; Table I-6, IRAK4 inhibitors): 20 to 30%
inhibition at 0.5 µM (MV-4-11; Table I-6, IRAK4 inhibitors): 20 to 30%
inhibition at 0.01 µM (SW620; Table I-6, IRAK4 inhibitors): 10 to 20%
inhibition at 0.5 µM (SW620; Table I-6, IRAK4 inhibitors): 10 to 20%

inhibition at 0.5 µM [1]: 40 to 53%
inhibition at 2 µM [1]: 53 to 60%
Compound: Cc1cc(Nc2ncc(Cl)c(Nc3ccccc3S(=O)(=O)C(C)C)n2)c(OC(C)C)cc1C1CCN(Cc2ccc3c(c2)CN(C2CCC(=O)NC2=O)C3=S)CC1 (centres unmarked) [GT-08674, 3-(5-((4-(4-((5-chloro-4-((2-(isopropylsulfonyl)pheny 1)amino)pyrimidin-2-yl)amino)-5-isopropoxy-2-methylphenyl)piperidin-1-yl)methyl)-1-thioxoisoindolin-2-yl)piperidine-2,6-dione]
inhibition at 0.01 µM (MCF-7): 30 to 40%
inhibition at 0.5 µM (MCF-7): 60 to 70%
inhibition at 0.01 µM (MM.1S; [2]): 30 to 40%
inhibition at 0.5 µM (MM.1S; [3]): 80 to 100%
inhibition at 0.01 µM (MV-4-11; Table I-2, ALK inhibitors): 0 to 10%
inhibition at 0.5 µM (MV-4-11; Table I-2, ALK inhibitors): 30 to 40%

inhibition at 0.5 µM [1]: 80 to 100%
inhibition at 2 µM [1]: 60 to 80%
Compound: C[C@@H]1CNC(=O)c2cc3ccc(C(=O)Nc4cnn(Cc5ccc(N6CCN(Cc7ccc8c(c7)CN(C7CCC(=O)NC7=O)C8=S)CC6)cc5)c4)nc3n21 (stereo partly drawn) [GT-08777, (9R)-N-(1-(4-(4-((2-(2,6-dioxopiperidin-3-yl)-1-thioxoisoindolin-5-yl)methyl)piperazin-1-yl)benzyl)-1H-pyrazol-4-yl)-9-methyl-6-oxo-6,7,8,9-tetrahydropyrido[3',2':4,5]pyrrolo[1,2-a]pyrazine-2-carboxamide]
inhibition at 0.01 µM (MM.1S; MM.1S, 10 nM, 96 hours, Table I-11, RSK inhibitors): 20 to 30%
inhibition at 0.5 µM (MM.1S; MM.1S, 500 nM, 96 hours, Table I-11, RSK inhibitors): 50 to 60%
inhibition at 0.01 µM (MV-4-11; Table I-11, RSK inhibitors): 20 to 30%
inhibition at 0.5 µM (MV-4-11; Table I-11, RSK inhibitors): 60 to 70%
inhibition at 0.01 µM (RPMI-8226; Table I-11, RSK inhibitors): 0 to 5%
inhibition at 0.5 µM (RPMI-8226; Table I-11, RSK inhibitors): 40 to 50%

inhibition at 0.5 µM [1]: 30 to 40%
inhibition at 2 µM [1]: 60 to 80%
Compound: Cc1ccc(C(=O)Nc2ccc(CN3CCN(Cc4cccc5c4CN(C4CCC(=O)NC4=O)C5=S)CC3)c(C(F)(F)F)c2)cc1C#Cc1cnc2cccnn12 (centres unmarked) [GT-08773, N-(4-((4-((2-(2,6-dioxopiperidin-3-yl)-1-thioxoisoindolin-4-yl)methyl)piperazin-1-yl)methyl)-3-(trifluoromethyl)phenyl)-3-(imidazo[1,2-b]pyridazin-3-ylethynyl)-4-methylbenzamide]
inhibition at 0.01 µM (MM.1S; MM.1S, 10 nM, 96 hours, Table I-10, BCR-ABL inhibitors): 10 to 20%
inhibition at 0.5 µM (MM.1S; MM.1S, 500 nM, 96 hours, Table I-10, BCR-ABL inhibitors): 80 to 100%
inhibition at 0.01 µM (MV-4-11; Table I-10, BCR-ABL inhibitors): 30 to 40%
inhibition at 0.5 µM (MV-4-11; Table I-10, BCR-ABL inhibitors): 80 to 100%
inhibition at 0.01 µM (RPMI-8226; Table I-10, BCR-ABL inhibitors): 5 to 10%
inhibition at 0.5 µM (RPMI-8226; Table I-10, BCR-ABL inhibitors): 60 to 70%
inhibition at 0.01 µM (SW620; Table I-10, BCR-ABL inhibitors): 0 to 5%
inhibition at 0.5 µM (SW620; Table I-10, BCR-ABL inhibitors): 70 to 80%

Reference: patent publication EP4745138A1, “THIO-GLUTARIMIDO ISOINDOLINONE DERIVATIVE, BIFUNCTIONAL PROTEIN DEGRADER CONTAINING SAME, AND USES THEREOF” (Gluetacs Therapeutics (Shanghai) Co., Ltd., priority 2023, dated 2025)
